Experimental data as given in ChEMBL document CHEMBL5380853, “Lead Optimization of Androgen Receptor-HSP27 Disrupting Agents in Glioblastoma” (J Med Chem, 2023).
Active and inactive are the calls of the source. The rule behind the calls is not given here.

Tests used:
[1] = molecular target: Heat shock protein beta-1 (Homo sapiens) (UniProt P04792); assay: Inhibition of HSP27 chaperone activity in human T98G cells expressing AR-V7 mutant assessed as down regulation of androgen receptor level at 25 to 100 nM by Western blotting analysis; type: cell-based; conditions: dose lower […], dose upper 100.0 nM
[2] = Toxicity in C57BL/6 mouse assessed as physical condition at 100 mg/kg, ip treated for 10 days; type: organism-based; conditions: in vivo, 240 h, time 10 day
[3] = molecular target: Heat shock protein beta-1 (Homo sapiens) (UniProt P04792); assay: Inhibition of HSP27 in AR-overexpressing human U87 cells assessed as androgen receptor degradation by measuring decrease in free cytoplasmic AR level at 50 nM measured after 12 hrs by immunofluorescence assay; type: cell-based
[4] = Toxicity in C57BL/6 mouse assessed as spleen histology by measuring intact/distinct spleen-follical at 100 mg/kg, ip treated for 10 days by hematoxylin and eosin staining based assay; type: organism-based; conditions: in vivo, 240 h, time 10 day
[5] = Apparent half life in mouse plasma at 20 mg/kg, ip measured for 24 hrs by LC-MS/MS analysis; type: ADME, organism-based; conditions: in vivo, ip, 20 mg/kg, 24 h
[6] = Toxicity in mouse xenografted with human U87 cells assessed as body weight at 20 mg/kg, ip administered weekly 3 times for 14 days; type: organism-based, U-87MG ATCC; conditions: in vivo, 336 h, time 14 day
U-87 MG [7] = assay: Antitumor activity against human U87 cells xenografted in mouse assessed as decrease in tumor size at 20 mg/kg, ip administered weekly 3 times for 14 days; type: functional, organism-based; conditions: U-87MG ATCC, time 14.0 day
[8] = AUC (0 to 24 hrs) in mouse brain at 20 mg/kg, ip measured for 24 hrs by LC-MS/MS analysis; type: ADME, organism-based; set-up: dose 20 mg/kg, time 24 hrs, route ip; conditions: in vivo
[9] = molecular target: Heat shock protein beta-1 (Homo sapiens) (UniProt P04792); assay: Inhibition of HSP27 chaperone activity in AR-overexpressing human T98G cells assessed as down regulation of androgen receptor level at 25 to 100 nM by Western blotting analysis; type: cell-based; conditions: dose lower […], dose upper 100.0 nM
[10] = Cmax in mouse plasma at 20 mg/kg, ip measured for 24 hrs by LC-MS/MS analysis; type: ADME, organism-based; set-up: time 24 hrs, dose 20 mg/kg, route ip; conditions: in vivo
[11] = AUC (0 to infinity) in mouse plasma at 20 mg/kg, ip measured for 24 hrs by LC-MS/MS analysis; type: ADME, organism-based; set-up: time 24 hrs, dose 20 mg/kg, route ip; conditions: in vivo
[12] = Toxicity in C57BL/6 mouse assessed as lung histology by measuring injury/fibrosis at 100 mg/kg, ip treated for 10 days by hematoxylin and eosin staining based assay; type: organism-based; conditions: in vivo, 240 h, time 10 day
[13] = Cmax in mouse brain at 20 mg/kg, ip measured for 24 hrs by LC-MS/MS analysis; type: ADME, organism-based; set-up: dose 20 mg/kg, time 24 hrs, route ip
[14] = AUC (0 to 24 hrs) in mouse plasma at 20 mg/kg, ip measured for 24 hrs by LC-MS/MS analysis; type: ADME, organism-based; set-up: dose 20 mg/kg, time 24 hrs, route ip; conditions: in vivo
U-87 MG [15] = assay: In vivo antitumor activity against human U87 cells xenografted in mouse assessed as decrease in tumor weight at 20 mg/kg, ip administered weekly 3 times for 14 days relative to control; type: functional, organism-based; conditions: U-87MG ATCC, time 14.0 day
[16] = Toxicity in C57BL/6 mouse assessed as liver histology at 100 mg/kg, ip treated for 10 days by hematoxylin and eosin staining based assay; type: organism-based; conditions: in vivo, 240 h, time 10 day
[17] = Toxicity in C57BL/6 mouse assessed as kidney histology by measuring necrosis/glomerular atrophy at 100 mg/kg, ip treated for 10 days by hematoxylin and eosin staining based assay; type: organism-based; conditions: in vivo, 240 h, time 10 day
U-87 MG [18] = assay: In vivo antitumor activity against human U87 cells xenografted in mouse assessed as decrease in AR protein level in tumor at 20 mg/kg, ip administered weekly 3 times for 14 days relative to control; type: functional, organism-based; conditions: U-87MG ATCC, time 14.0 day
[19] = molecular target: Heat shock protein beta-1 (Homo sapiens) (UniProt P04792); assay: Inhibition of HSP27 alpha-crystallin (unknown origin) activity assessed as DTT-induced insulin B chain aggregation at 10 uM measured upto 2 hrs by microplate reader-based HSP27 chaperone activity assay
[20] = Toxicity in C57BL/6 mouse assessed as body weight change at 100 mg/kg, ip treated for 10 days; type: organism-based; conditions: in vivo, 240 h, time 10 day
T98G [21] = assay: Effect on nucleus AR level in AR-overexpressing human T98G cells at 50 nM measured after 12 hrs by immunofluorescence assay; type: functional, cell-based
[22] = molecular target: Heat shock protein beta-1 (Homo sapiens) (UniProt P04792); assay: Inhibition of HSP27 chaperone activity in AR-overexpressing human U87 cells assessed as down regulation of androgen receptor level at 25 to 100 nM by Western blotting analysis; type: cell-based; conditions: dose lower […], dose upper 100.0 nM
[23] = Toxicity in C57BL/6 mouse assessed as heart histology by measuring infarcts/inflammatory cell infiltration at 100 mg/kg, ip treated for 10 days by hematoxylin and eosin staining based assay; type: organism-based; conditions: in vivo, 240 h, time 10 day
T98G [24] = assay: Down regulation of androgen receptor activity in AR-overexpressing human T98G cells at 50 nM measured after 12 hrs by Western blotting analysis; type: functional, cell-based
[25] = Apparent Half life in mouse brain at 20 mg/kg, ip measured for 24 hrs by LC-MS/MS analysis; type: ADME, organism-based; conditions: in vivo
U-87MG ATCC = assay: Effect on nucleus AR level in AR-overexpressing human U87 cells at 50 nM measured after 12 hrs by immunofluorescence assay; type: functional, cell-based
T98G [26] = assay: Down regulation of androgen receptor activity in AR-overexpressing human T98G cells at 100 nM measured after 12 hrs by Western blotting analysis; type: functional, cell-based
[27] = AUC (0 to infinity) in mouse brain at 20 mg/kg, ip measured for 24 hrs by LC-MS/MS analysis; type: ADME, organism-based; set-up: time 24 hrs, dose 20 mg/kg, route ip; conditions: in vivo
[28] = molecular target: Heat shock protein beta-1 (Homo sapiens) (UniProt P04792); assay: Inhibition of HSP27 in AR-overexpressing human T98G cells assessed as androgen receptor degradation by measuring decrease in free cytoplasmic AR level at 50 nM measured after 12 hrs by immunofluorescence assay; type: cell-based

Sequence of Heat shock protein beta-1 (Homo sapiens) (P04792 whole entry): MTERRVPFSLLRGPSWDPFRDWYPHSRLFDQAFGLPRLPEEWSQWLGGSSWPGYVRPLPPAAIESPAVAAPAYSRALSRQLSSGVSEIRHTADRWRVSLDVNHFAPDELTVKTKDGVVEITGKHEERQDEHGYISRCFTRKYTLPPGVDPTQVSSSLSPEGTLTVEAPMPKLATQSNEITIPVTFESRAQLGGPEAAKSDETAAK

COc1ccc(OC)c(COc2cc(NC(=O)c3ccc4c(c3)OCO4)ccc2NS(C)(=O)=O)c1
inhibition [1]: Active
Activity [2]: Non-Toxic
inhibition [3]: Active
Activity [4]: Non-Toxic
t1/2 [5]: 1.49 h
Activity [6]: Non-Toxic
Activity (U-87 MG [7]): Active
AUC [8]: 0.31 µg·h/g
inhibition [9]: Active
Cmax [10]: 20200 ng/mL
AUC [11]: 32130 ng·h/mL
Activity [12]: Non-Toxic
Cmax ([13]; brain, read-out: Cmax): 680 ng/g
AUC [14]: 20020 ng·h/mL
Activity (U-87 MG [15]): Active
Activity [16]: Non-Toxic
Activity [17]: Non-Toxic
Activity (U-87 MG [18]): Active
inhibition [19]: Active
Activity [20]: Non-Toxic
Activity (T98G [21]): inactive
inhibition [22]: Active
Activity [23]: Non-Toxic
Activity (T98G [24]): Active
t1/2 [25]: 0.57 h
Activity (U-87MG ATCC): inactive
Activity (T98G [26]): Active
AUC [27]: 0.62 µg·h/g
inhibition [28]: Active

COc1ccc(OC)c(COc2cc(NC(=O)c3ccc4ccccc4c3)ccc2NS(C)(=O)=O)c1
inhibition [1]: Active
Activity [2]: Non-Toxic
inhibition [3]: Active
Activity [4]: Non-Toxic
t1/2 [5]: 6.28 h
Activity [6]: Non-Toxic
Activity (U-87 MG [7]): Active
AUC [8]: 1.34 µg·h/g
inhibition [9]: Active
Cmax [10]: 30620 ng/mL
AUC [11]: 80840 ng·h/mL
Activity [12]: Non-Toxic
Cmax ([13]; in vivo, 24 h): 760 ng/g
AUC [14]: 61920 ng·h/mL
Activity (U-87 MG [15]): Active
Activity [16]: Non-Toxic
Activity [17]: Non-Toxic
Activity (U-87 MG [18]): Active
inhibition [19]: Active
Activity [20]: Non-Toxic
Activity (T98G [21]): inactive
inhibition [22]: Active
Activity [23]: Non-Toxic
Activity (T98G [24]): Active
t1/2 [25]: 8.66 h
Activity (U-87MG ATCC): inactive
Activity (T98G [26]): Active
AUC [27]: 2.44 µg·h/g
inhibition [28]: Active
